In US5817324A, “Use of arylpyrroles for the control of resistant insect populations” (American Cyanamid Company, priority 1997, dated 1998):

Columns and labels:
Assay type in all cases: in vivo
[1] = test system: Susceptible strain of horn flies (Haematobia irritans); assay: treated filterpaper-tarsal contact 24 hour bioassay, susceptible horn flies (Example 2); details: Table II
Description: (§1) In this bioassay, highly pyrethroid-resistant wild flies and flies of a pyrethroid-susceptible lab strain are used. All flies are held in plastic petri dishes and exposed to sequential rates of test compound residue on filter paper^1. A 1.25 inch hole is cut in the bottom half of the 100 mL petri dish and covered with fiberglass window screen. The bottom is used as the top in this bioassay, in order that the flies may be blood fed through the screened opening with a muslin pad saturated with citrated cattle blood.
(§2) The experiments are conducted in triplicate to determine 24 hour LC50 data for the test compound and cypermethrin on susceptible and pyrethroid-resistant horn flies. The experiments are conducted on site so that freshly captured pyrethroid-resistant horn flies can be used. On the exemplified site, very high levels of pyrethroid resistance had been selected through several years of pyrethroid cattle ear tag use^2. Wild pyrethroid-resistant horn flies are tested within 1 hour of capture to minimize check mortality. The resistance factor (RF) is determined by the following equation: […]
(§3) The LC50 is the concentration in μlg/cm^2 of test com-pound required to kill 50% of the fly population tested. The LC50 values are determined from the mortality data using standard log probit analysis techniques^3, and are within 95% confidence limits^1. The data obtained is shown in Table I. The references listed below are incorporated herein by reference thereto.
(§4) Evaluation Of Test Compounds vs. Permethrin On Susceptible And Resistant Strains Of Horn Flies (Haematobia irritans)
(§5) Using essentially the standard treated filterpaper-tarsal contact 24 hour bioassay described in Example 1, the following test compounds and pyrethroid insecticide are evaluated: […]

[2] = test system: Resistant strain of horn flies (Haematobia irritans); assay: treated filterpaper-tarsal contact 24 hour bioassay, resistant horn flies, with resistance factor (Example 2); details: Table II; for Resistant LC50: resistant horn flies
Description: as §1
(§6) The experiments are conducted in triplicate to determine 24 hour LC50 data for the test compound and cypermethrin on susceptible and pyrethroid-resistant horn flies. The experiments are conducted on site so that freshly captured pyrethroid-resistant horn flies can be used. On the exemplified site, very high levels of pyrethroid resistance had been selected through several years of pyrethroid cattle ear tag use^2. Wild pyrethroid-resistant horn flies are tested within 1 hour of capture to minimize check mortality. The resistance factor (RF) is determined by the following equation:
(§7) RF=Resistant LC50 .div.Susceptible LC50
as §3, §4, §5

[3] = test system: pyrethroid-susceptible lab strain horn flies (Haematobia irritans); assay: 24 hour treated filter paper bioassay, pyrethroid-susceptible horn flies (Example 1)
Description: (§8) Evaluation Of The Effect Of Test Compounds vs. Cypermethrin On Susceptible And Resistant Strains Of Horn Flies (Haematobia irritans).
as §1, §2, §3

[4] = test system: pyrethroid-resistant wild horn flies (Haematobia irritans); assay: 24 hour treated filter paper bioassay, pyrethroid-resistant horn flies, with resistance factor (Example 1)
Description: as §8, §1, §6, §7, §3

[5] = test system: pyrethroid-susceptible Peak Hill strain sheep body lice; assay: treated cotton square contact bioassay, pyrethroid-susceptible sheep body lice (Example 3); details: 16 hours
Description: (§9) Evaluation Of Test Compound Activity Against Susceptible And Resistant Sheep Body Lice
(§10) In this evaluation, test compounds are dissolved in acetone and diluted in a gradient series. One mL aliquots of the acetone dilutions are pipetted onto 6 cm cotton squares. The treated squares are dried and put into 9 cm petri dishes. Adult lice from the pyrethroid-susceptible Peak Hill strain and the pyrethroid-resitant Rowena strain are collected by suction from sheep, transferred onto each treated square and confined using a stainless steel ring (50 mm diameter×20 mm). After 16 hours, the lice are scored as dead, moribund or alive. In this bioassay, the test compound killed, rather than knocked-down lice. Each treatment is replicated. Standard log probit analysis techniques are used to determine the LC50 and LC99 values from the mortality data, and are within 95% confidence limits. The LC50 values are then used to determine the resistance factor (RF) as shown below.
(§11) The LC50 is the concentration in mg/L of test compound required to kill 50% of the lice population tested. The LC99 is the concentration in mg/L of test compound required to kill 99% of the lice population tested.

[6] = test system: pyrethroid-resistant Rowena strain sheep body lice; assay: treated cotton square contact bioassay, pyrethroid-resistant sheep body lice, with resistance factor (Example 3); details: 16 hours
Description: as §9, §10, §7, §11

[7] = Experiment 1, pyrethroid-resistant horn flies
[8] = Experiment 2, pyrethroid-resistant horn flies
[9] = Experiment 3, pyrethroid-resistant horn flies

CCOCn1c(-c2ccc(Cl)cc2)c(C#N)c(Cl)c1C(F)(F)F [Compound D, 4-Chloro-2-(p-chlorophenyl)-1-(ethoxymethyl)-5-(trifluoromethyl)pyrrole-3-carbonitrile]
Susceptible LC50 [1]: 8.692 μg/cm^2 | RF (resistance factor; Resistant LC50 ÷ Susceptible LC50) [2]: 0.123 | Resistant LC50 [2]: 1.066 μg/cm^2

CC1(C)C(C=C(Cl)Cl)C1C(=O)OC(C#N)c1cccc(Oc2ccccc2)c1 (centres unmarked) [Compound B, Cypermethrin, reference compound]
Susceptible LC50 ([3]; Experiment 1): 0.122 μg/cm^2 | Susceptible LC50 ([3]; Experiment 2): 0.057 μg/cm^2 | Susceptible LC50 ([3]; Experiment 3): 0.013 μg/cm^2 | RF (resistance factor; Resistant LC50 ÷ Susceptible LC50) ([4]; Experiment 1): 640 | Resistant LC50 [4, 7]: 79.02 μg/cm^2 | RF (resistance factor; Resistant LC50 ÷ Susceptible LC50) ([4]; Experiment 2): 1144 | Resistant LC50 [4, 8]: 65.20 μg/cm^2 | RF (resistance factor; Resistant LC50 ÷ Susceptible LC50) ([4]; Experiment 3): 3636 | Resistant LC50 [4, 9]: 47.27 μg/cm^2

CCOCn1c(-c2ccc(Cl)cc2)c(C#N)c(Br)c1C(F)(F)F [Compound A, 4-bromo-2-(p-chlorophenyl)-1-(ethoxymethyl)-5-(trifluoromethyl)pyrrole-3-carbonitrile]
Susceptible LC50 ([3]; Experiment 1): 1.2 μg/cm^2 | Susceptible LC50 ([3]; Experiment 2): 2.15 μg/cm^2 | Susceptible LC50 ([3]; Experiment 3): 1.25 μg/cm^2 | RF (resistance factor; Resistant LC50 ÷ Susceptible LC50) ([4]; Experiment 1): 0.30 | Resistant LC50 [4, 7]: 0.356 μg/cm^2 | RF (resistance factor; Resistant LC50 ÷ Susceptible LC50) ([4]; Experiment 2): 0.14 | Resistant LC50 [4, 8]: 0.294 μg/cm^2 | RF (resistance factor; Resistant LC50 ÷ Susceptible LC50) ([4]; Experiment 3): 0.23 | Resistant LC50 [4, 9]: 0.287 μg/cm^2 | Susceptible LC50 [1]: 1.691 μg/cm^2 | RF (resistance factor; Resistant LC50 ÷ Susceptible LC50) [2]: 0.23 | Resistant LC50 [2]: 0.391 μg/cm^2 | Susceptible LC50 [5]: 8.30 µg/mL | EC99 ([5]; read-out: Susceptible LC99): 52.8 µg/mL | Resistant LC50 ([6]; Rowena strain): 5.85 µg/mL | EC99 ([6]; Rowena strain, read-out: Resistant LC99): 24.5 µg/mL | RF (resistance factor; Resistant LC50 ÷ Susceptible LC50) ([6]; sheep body lice): 0.7048

N#Cc1c(-c2ccc(Cl)cc2)[nH]c(C(F)(F)F)c1Br [Compound C, 4-Bromo-2-(p-chlorophenyl)-5-(trifluoromethyl)pyrrole-3-carbonitrile]
Susceptible LC50 [1]: 21.237 μg/cm^2 | RF (resistance factor; Resistant LC50 ÷ Susceptible LC50) [2]: 0.088 | Resistant LC50 [2]: 1.877 μg/cm^2

CC1(C)C(C=C(Cl)Cl)C1C(=O)OCc1cccc(Oc2ccccc2)c1 (centres unmarked) [Compound E, Permethrin, reference compound]
Susceptible LC50 [1]: 0.102 μg/cm^2 | RF (resistance factor; Resistant LC50 ÷ Susceptible LC50) [2]: 80.0 | Resistant LC50 [2]: 8.16 μg/cm^2
